Experimental data from ChEMBL document CHEMBL4400514, “Medicinal chemistry of metal chelating fragments in metalloenzyme active sites: A perspective” (Eur J Med Chem, 2019).
pIC50: −log10 of the molar value.

Columns and labels:
[1] = biological target: T1, Deoxyhypusine hydroxylase (Plasmodium falciparum (isolate 3D7)) (UniProt Q8I701); assay: Inhibition of Plasmodium falciparum DOHH expressed in Escherichia coli BL21 cells at 1 mM after 24 hrs by GC/MS analysis relative to control
T1 sequence (whole entry): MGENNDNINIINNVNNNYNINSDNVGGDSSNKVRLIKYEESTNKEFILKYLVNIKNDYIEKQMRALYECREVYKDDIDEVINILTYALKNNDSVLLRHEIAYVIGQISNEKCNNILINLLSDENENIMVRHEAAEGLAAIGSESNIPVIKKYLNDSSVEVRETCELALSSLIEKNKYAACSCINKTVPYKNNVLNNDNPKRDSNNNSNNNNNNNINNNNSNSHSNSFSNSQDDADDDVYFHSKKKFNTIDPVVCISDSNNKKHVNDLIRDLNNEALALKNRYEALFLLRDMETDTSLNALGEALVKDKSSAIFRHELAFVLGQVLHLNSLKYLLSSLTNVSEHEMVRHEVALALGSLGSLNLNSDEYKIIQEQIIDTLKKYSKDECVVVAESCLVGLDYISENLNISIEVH

[2] = biological target: T2, Deoxyhypusine hydroxylase (Homo sapiens, UniProt Q9BU89); assay: Inhibition of DOHH (unknown origin)
T2 sequence (Q9BU89 whole entry): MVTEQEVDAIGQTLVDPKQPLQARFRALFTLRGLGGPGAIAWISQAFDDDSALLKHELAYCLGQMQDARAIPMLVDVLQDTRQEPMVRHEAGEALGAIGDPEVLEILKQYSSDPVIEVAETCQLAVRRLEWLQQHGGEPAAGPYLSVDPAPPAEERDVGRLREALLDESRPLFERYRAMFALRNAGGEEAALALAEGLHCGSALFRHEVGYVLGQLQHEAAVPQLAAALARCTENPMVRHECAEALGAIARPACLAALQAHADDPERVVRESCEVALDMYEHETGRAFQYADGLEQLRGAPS

SMILES	inhibition [1] [%]	pIC50 [2]
COc1ccc(-c2nc3cc(Cc4ccc5[nH]c(-c6ccc(OC)cc6)nc5c4)ccc3[nH]2)cc1	38.8	–
Cc1c(O)c(=O)ccn1C [DEFERIPRONE]	–	3.70 to 5.30
N[C@@H](Cn1ccc(=O)c(O)c1)C(=O)O [L-MIMOSINE]	–	3.70 to 5.30

Results, then the compound that gave them:

inhibition [1] [%]	pIC50 [2]	SMILES
–	3.70 to 5.30	c1ccc(-c2ccccn2)nc1 [DIPYRIDYL]
43.3	–	CCOc1ccc(-c2nonc2NC(=O)c2cccc(C)c2)cc1OCC
35.9	–	c1ccc(Cn2c(/N=N/c3c(Nc4ccccc4)ccc4ccccc34)nc3ccccc32)cc1
–	3.70 to 5.30	CC(=O)N(O)CCCCCNC(=O)CCC(=O)N(O)CCCCCNC(=O)CCC(=O)N(O)CCCCCN [DEFEROXAMINE]
–	3.70 to 5.30	Cc1cc(C2CCCCC2)n(O)c(=O)c1 [CICLOPIROX]
